Experiments:
His6P4H1 [1] = target: T1, His6P4H1 (Dictyostelium discoideum, UniProt Q86KR9); test: […]CO2-release assay with Skp1A; assay type: biochemical; conditions: read-out: % inhibition at 1 mM
His6P4H1 [2] = target: T1, His6P4H1; test: […]CO2-release assay with Skp1A; assay type: biochemical; conditions: 0.05 mM [1-14C]αKG, 5 µM Skp1A, 5 µM Fe(II), 1 mM ascorbate, pH 7.4, 29 °C, αKG antagonist

T1 sequence (Q86KR9 whole entry): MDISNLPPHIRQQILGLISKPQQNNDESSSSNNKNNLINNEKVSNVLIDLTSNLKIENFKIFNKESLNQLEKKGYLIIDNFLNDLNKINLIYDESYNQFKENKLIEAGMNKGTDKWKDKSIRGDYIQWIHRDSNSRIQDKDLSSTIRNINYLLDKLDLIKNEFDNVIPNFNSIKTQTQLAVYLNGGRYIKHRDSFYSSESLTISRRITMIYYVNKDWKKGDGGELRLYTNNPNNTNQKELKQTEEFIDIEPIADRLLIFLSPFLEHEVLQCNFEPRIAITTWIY

Row | inhibition at 1000 µM (His6P4H1 [1]) [%] | SMILES | other results
1 | 50 to 70 | O=C(O)CCC(=O)O [succinate] | –
2 | 50 to 70 | O=C(O)/C=C/C(=O)O [fumarate] | –
3 | 50 to 70 | O=C(O)CC(=O)C(=O)O [oxaloacetate] | –
4 | – | COC(=O)CNC(=O)C(=O)OC [DMOG] | % inhibition (His6P4H1 [2]; EtOH carrier): the αKG antagonists DMOG and PCA, and CoCl2 (Fig. 1D)
5 | – | O=C(O)c1ccc(O)c(O)c1 [PCA] | % inhibition (His6P4H1 [2]): the αKG antagonists DMOG and PCA, and CoCl2 (Fig. 1D)

— article PMC3192012 (Biochemistry, 2011)
